According to patent US20250101041A1, “POSITIVE ALLOSTERIC MODULATORS OF THE MUSCARINIC ACETYLCHOLINE RECEPTOR M4” (Vanderbilt University, priority 2022, published 2025):

Target: T1, human mAChR M4 (Homo sapiens, UniProt P08173)
T1 construct: expressed in transfected cells; host or cells: CHO-K1 (American Type Culture Collection), stably expressing hM4 and Gqi5
T1 sequence (P08173 1-479): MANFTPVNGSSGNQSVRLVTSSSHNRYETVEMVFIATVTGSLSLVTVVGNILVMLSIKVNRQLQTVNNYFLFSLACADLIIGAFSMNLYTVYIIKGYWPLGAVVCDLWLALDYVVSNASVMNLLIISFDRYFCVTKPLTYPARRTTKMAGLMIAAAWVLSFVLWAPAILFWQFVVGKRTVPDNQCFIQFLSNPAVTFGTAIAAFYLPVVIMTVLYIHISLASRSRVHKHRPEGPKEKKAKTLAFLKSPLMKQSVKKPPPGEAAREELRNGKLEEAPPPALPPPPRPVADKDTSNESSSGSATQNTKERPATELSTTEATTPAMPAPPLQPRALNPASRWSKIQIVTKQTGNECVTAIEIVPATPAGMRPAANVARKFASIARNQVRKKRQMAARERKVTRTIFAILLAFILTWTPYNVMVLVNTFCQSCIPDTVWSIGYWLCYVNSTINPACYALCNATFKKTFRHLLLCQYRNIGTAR
Assay: mAChR M4 cell-based functional assay: calcium mobilization (Fluo-4, FDSS), potentiation of EC20 acetylcholine response in hM4-Gqi5 CHO-K1 cells
Conditions: human M4; for Emax at 30 µM: CHO-K1, % ACh maximum at 30 μM; for EC50: potentiation of EC20 acetylcholine response, calcium mobilization
Outline: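 CHO-K1 cells stably co-expressing human M4 and chimeric Gqi5, loaded with Fluo-4 AM (50 min, 37 °C). Compounds in 11-point 1:3 series added first; EC20 acetylcholine added at 144 s and again at 230 s. Calcium read on FDSS at 1 Hz; EC50 and Emax from four-parameter logistic fit of potentiated EC20 response.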

| SMILES | Emax at 30 µM [%] | EC50 [nM] |
| --- | --- | --- |
| Cc1cc(=O)n2nc(N3CCc4ncc(-c5cncnc5)cc4C3)c(C)cc2n1 [Compound 1-286, 2,8-dimethyl-7-(3-(pyrimidin-5-yl)-7,8-dihydro-1,6-naphthyridin-6(5H)-yl)-4H-pyrimido[1,2-b]pyridazin-4-one] | 68 | 8720 |
| Cc1cc(=O)n2nc(N3CCc4ncc(-c5ccc(N(C)C)nc5)cc4C3)c(C)cc2n1 [Compound 1-221, 7-(3-(6-(dimethylamino)pyridin-3-yl)-7,8-dihydro-1,6-naphthyridin-6(5H)-yl)-2,8-dimethyl-4H-pyrimido[1,2-b]pyridazin-4-one] | 58 | 170 |
| Cc1nc(-c2cnc3c(c2)CN(c2nn4c(=O)ccnc4cc2C)CC3)cs1 [Compound 1-389, 8-methyl-7-(3-(2-methylthiazol-4-yl)-7,8-dihydro-1,6-naphthyridin-6(5H)-yl)-4H-pyrimido[1,2-b] pyridazin-4-one] | 63 | 271 |
| Cc1ccc2c(c1)N(c1cnc3c(c1)CN(c1nn4c(=O)ccnc4cc1C)CC3)C(C)CO2 (stereo not shown) [Compound 2-54, 7-(3-(3,6-dimethyl-2,3-dihydro-4H-benzo[b][1,4]oxazin-4-yl)-7,8-dihydro-1,6-naphthyridin-6(5H)-yl)-8-methyl-4H-pyrimido[1,2-b]pyridazin-4-one] | 96 | 64 |
| Cc1c(N2CCc3ncc(N4CCCn5nccc54)cc3C2)nn2c(=O)cc(C(F)(F)F)nc2c1C [Compound 2-30, 7-(3-(6,7-dihydropyrazolo[1,5-a]pyrimidin-4(5H)-yl)-7,8-dihydro-1,6-naphthyridin-6(5H)-yl)-8,9-dimethyl-2-(trifluoromethyl)-4H-pyrimido[1,2-b]pyridazin-4-one] | 83 | 20 |
| Cc1cc(=O)n2nc(N3CCc4ncc(-c5cnccn5)cc4C3)c(C)cc2n1 [Compound 1-260, 2,8-dimethyl-7-(3-(pyrazin-2-yl)-7,8-dihydro-1,6-naphthyridin-6(5H)-yl)-4H-pyrimido[1,2-b]pyridazin-4-one] | 83 | 97 |
| Cc1cc2nccc(=O)n2nc1N1CCc2ncc(C(F)(F)F)cc2C1 [Compound 1-1, 8-methyl-7-(3-(trifluoromethyl)-7,8-dihydro-1,6-naphthyridin-6(5H)-yl)-4H-pyrimido[1,2-b]pyridazin-4-one] | 81 | 300 |
| Cc1cc(=O)n2nc(N3CCc4ncc(-c5cc(F)ccc5F)cc4C3)c(C)cc2n1 [Compound 1-236, 7-(3-(2,5-difluorophenyl)-7,8-dihydro-1,6-naphthyridin-6(5H)-yl)-2,8-dimethyl-4H-pyrimido[1,2-b]pyridazin-4-one] | 87 | 1600 |
| Cc1c(N2CCc3ncc(-c4ccc(C(F)(F)F)nc4)cc3C2)nn2c(=O)cc(C(F)F)nc2c1C [Compound 1-93, 2-(difluoromethyl)-8,9-dimethyl-7-(3-(6-(trifluoromethyl)pyridin-3-yl)-7,8-dihydro-1,6-naphthyridin-6(5H)-yl)-4H-pyrimido[1,2-b]pyridazin-4-one] | 90 | 333 |
| Cc1c(N2CCc3ncc(-c4cccs4)cc3C2)nn2c(=O)cc(C(F)F)nc2c1C [Compound 1-312, 2-(difluoromethyl)-8,9-dimethyl-7-(3-(thiophen-2-yl)-7,8-dihydro-1,6-naphthyridin-6(5H)-yl)-4H-pyrimido[1,2-b]pyridazin-4-one] | 82 | 158 |
| Cc1ccccc1-c1cnc2c(c1)CN(c1nn3c(=O)ccnc3cc1C)CC2 [Compound 1-431, 8-methyl-7-(3-(o-tolyl)-7,8-dihydro-1,6-naphthyridin-6(5H)-yl)-4H-pyrimido[1,2-b] pyridazin-4-one] | 96 | 130 |
| Cc1ccc(-c2cnc3c(c2)CN(c2nn4c(=O)ccnc4c(C)c2C2CC2)CC3)cn1 [Compound 1-112, 8-cyclopropyl-9-methyl-7-(3-(6-methylpyridin-3-yl)-7,8-dihydro-1,6-naphthyridin-6(5H)-yl)-4H-pyrimido[1,2-b]pyridazin-4-one] | 67 | 668 |
| Cc1cc(=O)n2nc(N3CCc4ncc(-c5ccccc5OC(F)(F)F)cc4C3)c(C)c(C)c2n1 [Compound 1-275, 2,8,9-trimethyl-7-(3-(2-(trifluoromethoxy)phenyl)-7,8-dihydro-1,6-naphthyridin-6(5H)-yl)-4H-pyrimido[1,2-b]pyridazin-4-one] | 54 | 1790 |
| Cc1cc(=O)n2nc(N3CCc4ncc(-c5cnn(C)c5C)cc4C3)c(C)c(C)c2n1 [Compound 1-185, 7-(3-(1,5-dimethyl-1H-pyrazol-4-yl)-7,8-dihydro-1,6-naphthyridin-6(5H)-yl)-2,8,9-trimethyl-4H-pyrimido[1,2-b]pyridazin-4-one] | 86 | 752 |
| COc1ccccc1Nc1cnc2c(c1)CN(c1nn3c(=O)ccnc3cc1C)CC2 [Compound 2-62, 7-(3-((2-methoxyphenyl)amino)-7,8-dihydro-1,6-naphthyridin-6(5H)-yl)-8-methyl-4H-pyrimido[1,2-b]pyridazin-4-one] | 87 | 221 |
| Cc1cc2nc(C(=O)N3CC(C)C3)cc(=O)n2nc1N1CCc2ncc(C(F)(F)F)cc2C1 [Compound 1-56, 8-methyl-2-(3-methylazetidine-1-carbonyl)-7-(3-(trifluoromethyl)-7,8-dihydro-1,6-naphthyridin-6(5H)-yl)-4H-pyrimido[1,2-b]pyridazin-4-one] | 102 | 281 |
| Cc1cc2nccc(=O)n2nc1N1CCc2ncc(-c3ccn(C)c(=O)c3)cc2C1 [Compound 1-37, 8-methyl-7-(3-(1-methyl-2-oxo-1,2-dihydropyridin-4-yl)-7,8-dihydro-1,6-naphthyridin-6(5H)-yl)-4H-pyrimido[1,2-b]pyridazin-4-one] | 83 | 2530 |
| Cc1ccc(-c2cnc3c(c2)CN(c2nn4c(=O)cc(C(F)F)nc4c(C)c2C)CC3)cn1 [Compound 1-85, 2-(difluoromethyl)-8,9-dimethyl-7-(3-(6-methylpyridin-3-yl)-7,8-dihydro-1,6-naphthyridin-6(5H)-yl)-4H-pyrimido[1,2-b]pyridazin-4-one] | 103 | 127 |
| Cc1c(N2CCc3ncc(N4CCOc5ncccc54)cc3C2)nn2c(=O)ccnc2c1C [Compound 2-33, 7-(3-(2,3-dihydro-1H-pyrido[2,3-b][1,4]oxazin-1-yl)-7,8-dihydro-1,6-naphthyridin-6(5H)-yl)-8,9-dimethyl-4H-pyrimido[1,2-b]pyridazin-4-one] | 89 | 15 |
| Cc1c(N2CCc3ncc(-c4cnn(-c5ccccn5)c4)cc3C2)nn2c(=O)ccnc2c1C [Compound 1-153, 8,9-dimethyl-7-(3-(1-(pyridin-2-yl)-1H-pyrazol-4-yl)-7,8-dihydro-1,6-naphthyridin-6(5H)-yl)-4H-pyrimido[1,2-b]pyridazin-4-one] | 67 | 584 |
| Cc1cc2nccc(=O)n2nc1N1CCc2ncc(-c3cnn4c3COCC4)cc2C1 [Compound 1-325, 7-(3-(6,7-dihydro-4H-pyrazolo[5,1-c][1,4]oxazin-3-yl)-7,8-dihydro-1,6-naphthyridin-6(5H)-yl)-8-methyl-4H-pyrimido[1,2-b]pyridazin-4-one] | 68 | 921 |
| Cc1cc(=O)n2nc(N3CCc4ncc(-c5ccc(C(F)(F)F)nc5)cc4C3)c(C)c(C)c2n1 [Compound 1-130, 2,8,9-trimethyl-7-(3-(6-(trifluoromethyl)pyridin-3-yl)-7,8-dihydro-1,6-naphthyridin-6(5H)-yl)-4H-pyrimido[1,2-b]pyridazin-4-one] | 84 | 8090 |
| Cc1cc(F)ccc1-c1cnc2c(c1)CN(c1nn3c(=O)ccnc3c(C)c1C)CC2 [Compound 1-264, 7-(3-(4-fluoro-2-methylphenyl)-7,8-dihydro-1,6-naphthyridin-6(5H)-yl)-8,9-dimethyl-4H-pyrimido[1,2-b]pyridazin-4-one] | 98 | 222 |
| Cc1cc2ncc(Cl)c(=O)n2nc1N1CCc2ncc(C(F)(F)F)cc2C1 [Compound 1-4, 3-chloro-8-methyl-7-(3-(trifluoromethyl)-7,8-dihydro-1,6-napthyridin-6(5H)-yl)-4H-pyrimido[1,2-b]pyridazin-4-one] | 96 | 181 |
| Cc1cc2nccc(=O)n2nc1N1CCc2ncc(Nc3cnccn3)cc2C1 [Compound 2-127, 8-methyl-7-(3-(pyrazin-2-ylamino)-7,8-dihydro-1,6-naphthyridin-6(5H)-yl)-4H-pyrimido[1,2-b]pyridazin-4-one] | 64 | 2540 |
| COc1ccc(Nc2cnc3c(c2)CN(c2nn4c(=O)ccnc4cc2C)CC3)cn1 [Compound 2-134, 7-(3-((6-methoxypyridin-3-yl)amino)-7,8-dihydro-1,6-naphthyridin-6(5H)-yl)-8-methyl-4H-pyrimido[1,2-b]pyridazin-4-one] | 90 | 290 |
